According to the NIST ThermoML archive (doi:10.1021/je700260f):
± gives the expanded uncertainty stated by the source.

Details: 303.15 K, Liquid, Vibrating tube method

FC(C(F)(F)F)C(F)(F)F [1,1,1,2,3,3,3-heptafluoropropane]
mass density (15975 kPa): 1462 ± 1.6 kg/m3
mass density (16006 kPa): 1462.4 ± 1.6 kg/m3
mass density (16038 kPa): 1462.4 ± 1.6 kg/m3
mass density (16079 kPa): 1462.6 ± 1.6 kg/m3
mass density (16111 kPa): 1462.8 ± 1.6 kg/m3
mass density (16152 kPa): 1462.9 ± 1.6 kg/m3
mass density (16184 kPa): 1463 ± 1.6 kg/m3
mass density (16220 kPa): 1463.2 ± 1.6 kg/m3
mass density (16252 kPa): 1463.4 ± 1.6 kg/m3
mass density (16288 kPa): 1463.6 ± 1.6 kg/m3
mass density (16325 kPa): 1463.8 ± 1.6 kg/m3
mass density (16349 kPa): 1463.9 ± 1.6 kg/m3
mass density (16386 kPa): 1464 ± 1.6 kg/m3
mass density (16414 kPa): 1464.1 ± 1.6 kg/m3
mass density (16443 kPa): 1464.3 ± 1.6 kg/m3
mass density (16485 kPa): 1464.4 ± 1.6 kg/m3
mass density (16513 kPa): 1464.6 ± 1.6 kg/m3
mass density (16550 kPa): 1464.7 ± 1.6 kg/m3
mass density (16577 kPa): 1464.8 ± 1.6 kg/m3
mass density (16623 kPa): 1465.1 ± 1.6 kg/m3
mass density (16650 kPa): 1465.1 ± 1.6 kg/m3
mass density (16678 kPa): 1465.2 ± 1.6 kg/m3
mass density (16706 kPa): 1465.4 ± 1.6 kg/m3
mass density (16742 kPa): 1465.5 ± 1.6 kg/m3
mass density (16775 kPa): 1465.7 ± 1.6 kg/m3
mass density (16802 kPa): 1465.8 ± 1.6 kg/m3
mass density (16832 kPa): 1466 ± 1.6 kg/m3
mass density (16862 kPa): 1466 ± 1.6 kg/m3
mass density (16887 kPa): 1466.2 ± 1.6 kg/m3
mass density (16920 kPa): 1466.4 ± 1.6 kg/m3
mass density (16953 kPa): 1466.4 ± 1.6 kg/m3
mass density (16978 kPa): 1466.6 ± 1.6 kg/m3
mass density (17021 kPa): 1466.7 ± 1.6 kg/m3
mass density (17046 kPa): 1466.9 ± 1.6 kg/m3
mass density (17084 kPa): 1467 ± 1.6 kg/m3
mass density (17113 kPa): 1467.2 ± 1.6 kg/m3
mass density (17142 kPa): 1467.4 ± 1.6 kg/m3
mass density (17167 kPa): 1467.5 ± 1.6 kg/m3
mass density (17196 kPa): 1467.5 ± 1.6 kg/m3
mass density (17235 kPa): 1467.8 ± 1.6 kg/m3
mass density (17260 kPa): 1467.9 ± 1.6 kg/m3
mass density (17289 kPa): 1468 ± 1.6 kg/m3
mass density (17322 kPa): 1468.1 ± 1.6 kg/m3
mass density (17360 kPa): 1468.3 ± 1.6 kg/m3
mass density (17393 kPa): 1468.3 ± 1.6 kg/m3
mass density (17423 kPa): 1468.6 ± 1.6 kg/m3
mass density (17451 kPa): 1468.7 ± 1.6 kg/m3
mass density (17484 kPa): 1468.8 ± 1.6 kg/m3
mass density (17509 kPa): 1468.9 ± 1.6 kg/m3
mass density (17544 kPa): 1469.1 ± 1.6 kg/m3
mass density (17577 kPa): 1469.3 ± 1.6 kg/m3
mass density (17603 kPa): 1469.3 ± 1.6 kg/m3
mass density (17633 kPa): 1469.4 ± 1.6 kg/m3
mass density (17662 kPa): 1469.6 ± 1.6 kg/m3
mass density (17718 kPa): 1469.9 ± 1.6 kg/m3
mass density (17752 kPa): 1470 ± 1.6 kg/m3
mass density (17778 kPa): 1470 ± 1.6 kg/m3
mass density (17808 kPa): 1470.1 ± 1.6 kg/m3
mass density (17837 kPa): 1470.3 ± 1.6 kg/m3
mass density (17867 kPa): 1470.6 ± 1.6 kg/m3
mass density (17892 kPa): 1470.5 ± 1.6 kg/m3
mass density (17928 kPa): 1470.7 ± 1.6 kg/m3
mass density (17958 kPa): 1471 ± 1.6 kg/m3
mass density (17996 kPa): 1471 ± 1.6 kg/m3
mass density (18026 kPa): 1471.1 ± 1.6 kg/m3
mass density (18056 kPa): 1471.2 ± 1.6 kg/m3
mass density (18091 kPa): 1471.3 ± 1.6 kg/m3
mass density (18125 kPa): 1471.6 ± 1.6 kg/m3
mass density (18151 kPa): 1471.7 ± 1.6 kg/m3
mass density (18185 kPa): 1471.7 ± 1.6 kg/m3
mass density (18211 kPa): 1471.9 ± 1.6 kg/m3
mass density (18238 kPa): 1472.2 ± 1.6 kg/m3
mass density (18277 kPa): 1472.1 ± 1.6 kg/m3
mass density (18303 kPa): 1472.4 ± 1.6 kg/m3
mass density (18333 kPa): 1472.5 ± 1.6 kg/m3
mass density (18359 kPa): 1472.6 ± 1.6 kg/m3
mass density (18389 kPa): 1472.6 ± 1.6 kg/m3
mass density (18419 kPa): 1472.9 ± 1.6 kg/m3
mass density (18449 kPa): 1473 ± 1.6 kg/m3
mass density (18480 kPa): 1472.9 ± 1.6 kg/m3
mass density (18511 kPa): 1473.3 ± 1.6 kg/m3
mass density (18545 kPa): 1473.3 ± 1.6 kg/m3
mass density (18580 kPa): 1473.5 ± 1.6 kg/m3
mass density (18615 kPa): 1473.7 ± 1.6 kg/m3
mass density (18646 kPa): 1473.8 ± 1.6 kg/m3
mass density (18677 kPa): 1473.8 ± 1.6 kg/m3
mass density (18707 kPa): 1474.1 ± 1.6 kg/m3
mass density (18737 kPa): 1474.2 ± 1.6 kg/m3
mass density (18777 kPa): 1474.3 ± 1.6 kg/m3
mass density (18803 kPa): 1474.4 ± 1.6 kg/m3
mass density (18835 kPa): 1474.5 ± 1.6 kg/m3
mass density (18861 kPa): 1474.7 ± 1.6 kg/m3
mass density (18888 kPa): 1474.9 ± 1.6 kg/m3
mass density (18913 kPa): 1475 ± 1.6 kg/m3
mass density (18954 kPa): 1475.1 ± 1.6 kg/m3
mass density (18980 kPa): 1475.2 ± 1.6 kg/m3
mass density (19017 kPa): 1475.4 ± 1.6 kg/m3
mass density (19044 kPa): 1475.5 ± 1.6 kg/m3
mass density (19075 kPa): 1475.6 ± 1.6 kg/m3
mass density (19101 kPa): 1475.6 ± 1.6 kg/m3
mass density (19144 kPa): 1475.8 ± 1.6 kg/m3
mass density (19166 kPa): 1476 ± 1.6 kg/m3
